“Also recorded” adds a separate entry of the source.
What was measured:
[1] = tested on: Colo205 xenograft tumors; assay: Colo205 xenograft tumor model in NSG mice; type: in vivo
Procedure: (§1) To test the ability of selinexor to enhance MYXV replication in vivo, a xenograft tumor model was established in immunodeficient NSG mice. Human Colo205 (FIG. 7) and HT29 (FIG. 8) cells were injected subcutaneously on both sides of the flank to generate tumors (FIG. 7A). After the tumors size reached between 100-200 mm^3 (2-3 weeks), mice were separated into treatment groups to have approximately equal average tumor sizes. Animals (n=5) were treated with PBS (oral and IT right tumor), selinexor (oral, 15 mg/kg), vMyx-Fluc (wild-type MYXV expressing Firefly luciferase and TdTomato; IT left tumor, 1×10^7 FFU), or selinexor (oral) and vMyx-Fluc (IT left tumor). After 48 hours post-treatment mice were imaged using an IVIS system for luciferase expression. […] Subsequently, mice received 2nd and 3rd doses of selinexor and a second IT injection of MYXV in the same tumor. […] Additionally, tumor burden was measured on both flanks during the course of treatment (FIG. 7F, FIG. 7G, FIG. 8E, and FIG. 8F).
(§2) Animal Studies: Male and female NSG mice were purchased from Jackson laboratory at 6-8 weeks of age. Animals were housed under sterile conditions. The animals were acclimatized for at least seven days before tumor implantation or any experimental procedures. Cells (1×10^6/mouse in 100 μL PBS) were subcutaneously injected into the flanks of NSG mice. When the average tumor volumes reached 50-200 mm^3, the mice were randomized into different treatment groups of five or six animals such that each treatment group had approximately the same average tumor volume. Tumor volume was measured two or three times per week as follows: volume=(length×width^2)/2. When the tumor volume reached 1.5-2 cm^3 animals were euthanized and tumors were collected for histology or processed for virus titration. To detect MYXV replication in the tumor bed luciferin was injected via IP delivery and bioluminescence images taken (Xenogen IVIS 2000).

[2] = tested on: PANC-1 xenograft tumors; assay: PANC-1 xenograft tumor model in NSG mice; type: in vivo
Procedure: Based on the in vivo results showing selinexor enhances MYXV replication in the tumor bed and reduces the tumor burden in Colo205 and HT29 xenograft tumors, the treatment was examined in PANC-1 xenograft tumors. Human PANC-1 cells were injected subcutaneously on both sides of the flank to generate tumors (FIG. 11A). After the tumor size reached ˜50-100 mm^3 (2-3 weeks), animals were randomly assigned to treatment groups to have approximately equal average tumor size. Animals (n=6) were then treated with PBS, selinexor, MYXV, or selinexor+MYXV. Animals received a total of four treatments within the first two weeks and tumor burden was measured 2-3 times every week. After the first treatment, mice were imaged using the IVIS system for luciferase expression at 24 and 72 hours post-treatment (FIG. 11B and FIG. 11C). […] After imaging and measuring luciferase signals, three additional treatments to test their therapeutic effect on tumor burden and survival were administered.
Luciferase signals in animals were also measured before the endpoint to confirm the presence of the virus in the tumor bed after the final (fourth) injection. […] Luciferase signal was measured again 23 days after the last viral injection, at which point high luciferase activity was still observed in each group (FIG. 13C). At the endpoint, tumors were collected and virus titration assays were performed (FIG. 13D). […] In both tumors, although not significant, viral load was higher in selinexor+MYXV treated mice than mice treated with MYXV alone.
Animal Studies: Male and female NSG mice were purchased from Jackson laboratory at 6-8 weeks of age. Animals were housed under sterile conditions. The animals were acclimatized for at least seven days before tumor implantation or any experimental procedures. Cells (1×10^6/mouse in 100 μL PBS) were subcutaneously injected into the flanks of NSG mice. […] Tumor volume was measured two or three times per week as follows: volume=(length×width^2)/2. […]

[3] = tested on: HT29 xenograft tumors; assay: HT29 xenograft tumor model in NSG mice; type: in vivo
Procedure: as §1, §2

[4] = tested on: Lewis lung carcinoma (LLC1) cells; assay: Lewis lung carcinoma (LLC1) tumor model in immunocompetent C57BL/6 mice; type: in vivo; settings: single agents; selinexor 15 mg/kg oral; MYXV expressing IL15/IL15Ra (vMyx-IL15Ra) IT 5×10^7 FFU; left and right tumors
Procedure: To verify that the combination of selinexor and MYXV is effective even in mice with a competent immune system, C57BL/6 mice were inoculated with mouse Lewis lung carcinoma (LLC1) cells (FIG. 14A). LLC1 cells were subcutaneously injected on both sides of the flank in C57BL/6 mice. Mice were separated into treatment groups and treated with PBS, selinexor, MYXV expressing IL15/IL15Ra (IT, 5×10^7), or selinexor+MYXV expressing IL15/IL15Ra.
The tumor burden on each flank was measured twice every week.

[5] = tested on: PANC-1, Colo205, HT29, and MDMB435 cells; assay: Cell viability assay (MTS); type: cell-based, human
Procedure: To further assess the inhibition of cell proliferation, and investigate if cell death is enhanced, cell viability assays were performed using an MTS assay to detect metabolic activity in active cells. For this assay, PANC-1 (FIG. 5A through FIG. 5D), Colo205 (FIG. 5E through FIG. 5H), HT29, and MDMB435 cells were treated with different concentrations of selinexor, infected with MYXB at different MOIs, or treated with a combination of selinexor and MYXB, and cell viability was measured at different time points.
Cell Viability Assay: To assess the viability of different human cancer cells after selinexor treatment or MYXV infection, 10,000 cells were seeded into each well of a 96-well plate. The next day, cells were treated with different concentrations of selinexor, infected with different MOIs of MYXV, or treated with different concentrations of selinexor for 1 hour followed by infection with different MOIs of MYXV. A minimum of four wells were used for each treatment condition, and untreated cells (mock) served as controls. Cell viability was assessed at 24, 48, 72, and 96 hours using an MTS assay.

[6] = 48 hours after first vMyx-Fluc IT injection, selinexor oral 15 mg/kg
[7] = both flanks, selinexor oral 15 mg/kg, vMyx-Fluc IT 1×10^7 FFU

O=C(/C=C\n1cnc(-c2cc(C(F)(F)F)cc(C(F)(F)F)c2)n1)NNc1cnccn1 [selinexor]
luciferase expression (IVIS) vs virus alone [1, 6]: significantly higher levels of luciferase | luciferase signal (IVIS) vs virus alone ([1]; after second treatment): significantly enhanced level of luciferase signal | tumor burden compared to PBS or MYXV-only [1, 7]: significantly reduced tumor burden | luciferase signals (IVIS) vs virus alone ([2]; 24 and 72 hours after first treatment): significantly higher levels of luciferase signals | tumor burden compared to PBS or MYXV alone ([2]; four treatments within first two weeks): significant reduction in tumor burden | survival compared to PBS or MYXV alone ([2]; mouse, in vivo): survived significantly longer | luciferase expression (IVIS) vs virus alone [3, 6]: significantly higher levels of luciferase | luciferase signal (IVIS) vs virus alone ([3]; after second treatment): significantly enhanced level of luciferase signal | tumor burden compared to PBS or MYXV-only [3, 7]: significantly reduced tumor burden | tumor burden [4]: significantly reduced tumor burden | cell viability ([5]; selinexor 0.5 μM or 1 μM, over time, all cells tested): 50% | cell viability ([5]; selinexor alone 0.1 μM or 0.05 μM): no effect on cell viability; also recorded: almost no effect

Source: patent US20250249056A1, “CANCER THERAPIES COMPRISING A NUCLEAR EXPORT INHIBITOR AND AN ONCOLYTIC VIRUS” (priority 2022, published 2025)
